One assay deals with WDR5 (Homo sapiens (Human), UniProt P61964). Nature of the assay: Surface Plasmon Resonance (SPR) assay, KD and residence time. To be noted: for Kd: read-out: WDR5 binding affinity (KD). It is filed as binding.
The next assay relates to MV4-11 cells. The assay can be described thus: Cell proliferation assay (ATPlite). Type of assay: cell-based. Particulars: Homo sapiens, MV4-11, 120 h; MV-411 cells, five days; read-out: In vitro whole cell potency in MV-411 cells, (IC50). In outline: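 MV4-11 cells at 1,000 cells/well in Alpha-MEM with 10% FBS were dosed over a 10-point range (top 10 μM). Cells were grown 5 days at 37° C, 5% CO2. Viability was read as ATPlite luminescence.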
On the technique in general: ATP-based viability assays read luminescence as a measure of living cells.

[1] abbreviates: surface plasmon resonance (SPR).
[2] abbreviates: surface plasmon resonance (SPR) assay.

Experimental findings from patent US11319299B2, “Substituted carboxamides as inhibitors of WDR5 protein-protein binding” (PROPELLON THERAPEUTICS INC., priority 2016, dated 2022) are described below.

Like-named read-outs stand apart in the source and are kept apart here.

The Kd is the free concentration of one partner at which half of the binding sites on the other are occupied at equilibrium, for simple one-to-one binding. Broadly, the IC50 is the concentration that inhibits the measured activity by half. What is called residence time is how long the partners stay bound on average.

Consider `C[C@@H]1CN(c2ncc(-c3cc(NC(=O)c4ccc(F)cc4C(F)(F)F)c(N4CCN(C)[C@H](C)C4)cc3F)cn2)CCO1` (stereo in doubt) [Example 452, 4-fluoro-N-[4-fluoro-2-[(3R)-3,4-dimethylpiperazin-1-yl]-5-[2-[(2R)-2-methylmorpholin-4-yl]pyrimidin-5-yl]phenyl]-2-(trifluoromethyl)benzamide], for which the equilibrium dissociation constant (Kd) on WDR5 (setting [1]) came out at 0.493 nM. Also, the IC50 in the assay with MV4-11 cells came to 62 nM.

As to `CC1CN(c2cc(F)c(-c3cnc(N4CCNCC4)nc3)cc2NC(=O)c2cn(C)c(=O)cc2C(F)(F)F)CCN1C` (stereo in doubt) [Example 464, N-[4-fluoro-5-(2-piperazin-1-ylpyrimidin-5-yl)-2-[(3R)-3,4-dimethylpiperazin-1-yl]phenyl]-1-methyl-6-oxo-4-(trifluoromethyl)pyridine-3-carboxamide], the equilibrium dissociation constant (Kd) at WDR5 (setting [1]) is 2.21 nM. Besides, in the assay on MV4-11 cells, the concentration for half-maximal inhibition (IC50) was determined as 49 nM.

Regarding `C[C@@H]1CN(c2nccc(-c3cc(NC(=O)c4c[nH]c(=O)cc4C(F)(F)F)c(N4CCN(C)[C@H](C)C4)cc3F)n2)CCO1` (stereo in doubt) [Example 593, N-[4-fluoro-2-[(3R)-3,4-dimethylpiperazin-1-yl]-5-[2-[(2R)-2-methylmorpholin-4-yl]pyrimidin-4-yl]phenyl]-6-oxo-4-(trifluoromethyl)-1H-pyridine-3-carboxamide], on WDR5 (setting [1]), the Kd was found to be 0.737 nM. Also, the half-inhibitory concentration (IC50) in the assay with MV4-11 cells came out at 14 nM.

Consider `CC1CN(c2nccc(-c3cc(NC(=O)c4c[nH]c(=O)cc4C(F)(F)F)c(N4C[C@@H](C)N(C)[C@@H](C)C4)cc3F)n2)CCO1` (stereo in doubt) [Example 594, N-[4-fluoro-5-[2-[(2R)-2-methylmorpholin-4-yl]pyrimidin-4-yl]-2-[(3S,5R)-3,4,5-trimethylpiperazin-1-yl]phenyl]-6-oxo-4-(trifluoromethyl)-1H-pyridine-3-carboxamide], for which the Kd at WDR5 (setting [1]) amounted to 0.712 nM. In the assay on MV4-11 cells, the 50% inhibitory concentration (IC50) was 19 nM.

Take `CC1CN(c2cc(F)c(-c3csc(N4CCOCC4)n3)cc2NC(=O)c2c[nH]c(=O)cc2C(F)(F)F)CCN1C` (stereo in doubt) [Example 617, N-[4-fluoro-5-(2-morpholin-4-yl-1,3-thiazol-4-yl)-2-[(3R)-3,4-dimethylpiperazin-1-yl]phenyl]-6-oxo-4-(trifluoromethyl)-1H-pyridine-3-carboxamide]: the Kd on WDR5 (setting [1]) is 558000 nM. In addition, the 50% inhibitory concentration (IC50) with MV4-11 cells was 36 nM.

As for `C[C@@H]1CN(c2cc(F)c(-c3cnc(N4CCOCC4)nc3)cc2NC(=O)c2c[nH]nc2C(F)(F)F)C[C@H](C)N1C` [Example 42, N-[4-fluoro-5-(2-morpholin-4-ylpyrimidin-5-yl)-2-[(3R,5S)-3,4,5-trimethylpiperazin-1-yl]phenyl]-3-(trifluoromethyl)-1H-pyrazole-4-carboxamide], the residence time at WDR5 (τ=1/koff, Table 2, read-out: Residence Time (t, min)) stood at 3.45 min. Further, the half-inhibitory concentration (IC50) in the assay with MV4-11 cells came to 428 nM.

As for `C[C@@H]1CN(c2cc(F)c(-c3ccc4c(c3)OCO4)cc2NC(=O)c2c[nH]c(=O)cc2C(F)(F)F)C[C@H](C)N1C` [Example 63, N-[5-(1,3-benzodioxol-5-yl)-4-fluoro-2-[(3R,5S)-3,4,5-trimethylpiperazin-1-yl]phenyl]-6-oxo-4-(trifluoromethyl)-1H-pyridine-3-carboxamide], at WDR5 (setting [2]), the Kd was 0.694 nM. Moreover, the half-inhibitory concentration (IC50) in the assay on MV4-11 cells came out at 206 nM.

Consider `CC(=O)Nc1ccc(-c2cc(NC(=O)c3c[nH]c(=O)cc3C(F)(F)F)c(N3C[C@@H](C)N(C)[C@@H](C)C3)cc2F)cn1` [Example 64, N-[5-(6-acetamidopyridin-3-yl)-4-fluoro-2-[(3R,5S)-3,4,5-trimethylpiperazin-1-yl]phenyl]-6-oxo-4-(trifluoromethyl)-1H-pyridine-3-carboxamide], for which the Kd on WDR5 (setting [2]) is 0.199 nM. Further, the IC50 in the assay on MV4-11 cells amounted to 366 nM.

`COCCOc1ccc(-c2cc(NC(=O)c3c[nH]c(=O)cc3C(F)(F)F)c(N3C[C@@H](C)N(C)[C@@H](C)C3)cc2F)cc1` [Example 90, N-[4-fluoro-5-[4-(2-methoxyethoxy)phenyl]-2-[(3R,5S)-3,4,5-trimethylpiperazin-1-yl]phenyl]-6-oxo-4-(trifluoromethyl)-1H-pyridine-3-carboxamide]: on WDR5 (setting [2]), the Kd was determined as 0.441 nM. Besides, in the assay on MV4-11 cells, the concentration for half-maximal inhibition (IC50) turned out to be 120 nM.

On to `CC(C)COc1ncc(-c2cc(NC(=O)c3c[nH]c(=O)cc3C(F)(F)F)c(N3C[C@@H](C)N(C)[C@@H](C)C3)cc2F)cc1Cl` [Example 91, N-[5-[5-chloro-6-(2-methylpropoxy)pyridin-3-yl]-4-fluoro-2-[(3R,5S)-3,4,5-trimethylpiperazin-1-yl]phenyl]-6-oxo-4-(trifluoromethyl)-1H-pyridine-3-carboxamide], for which the equilibrium dissociation constant (Kd) at WDR5 (setting [2]) worked out at 4.47 nM. Besides, the 50% inhibitory concentration (IC50) in the assay with MV4-11 cells was determined as 257 nM.

`C[C@@H]1CN(c2cc(F)c(-c3ccc(OCC4CC4)c(Cl)c3)cc2NC(=O)c2c[nH]c(=O)cc2C(F)(F)F)C[C@H](C)N1C` [Example 92, N-[5-[3-chloro-4-(cyclopropylmethoxy)phenyl]-4-fluoro-2-[(3R,5S)-3,4,5-trimethylpiperazin-1-yl]phenyl]-6-oxo-4-(trifluoromethyl)-1H-pyridine-3-carboxamide]: on WDR5 (setting [2]), the equilibrium dissociation constant (Kd) was 10.9 nM. Besides, the half-maximal inhibitory concentration (IC50) with MV4-11 cells was determined as 71 nM.

Consider `C[C@@H]1CN(c2cc(F)c(-c3cnc(N4CCOCC4)nc3)cc2NC(=O)c2cn(C)c(=O)cc2C(F)(F)F)C[C@H](C)N1C` [Example 93, N-[4-fluoro-5-(2-morpholin-4-ylpyrimidin-5-yl)-2-[(3R,5S)-3,4,5-trimethylpiperazin-1-yl]phenyl]-1-methyl-6-oxo-4-(trifluoromethyl)pyridine-3-carboxamide], for which the Kd at WDR5 (setting [2]) amounted to 2.17 nM. Further, the IC50 in the assay on MV4-11 cells stood at 48 nM.

`C[C@@H]1CN(c2ncc(-c3cc(NC(=O)c4c[nH]c(=O)cc4C(F)(F)F)c(N4C[C@@H](C)N(C)[C@@H](C)C4)cc3F)cn2)C[C@H](C)O1` [Example 161, N-[4-fluoro-5-[2-[(2R,6S)-2,6-dimethylmorpholin-4-yl]pyrimidin-5-yl]-2-[(3S,5R)-3,4,5-trimethylpiperazin-1-yl]phenyl]-6-oxo-4-(trifluoromethyl)-1H-pyridine-3-carboxamide]: the equilibrium dissociation constant (Kd) at WDR5 (setting [2]) amounted to 1 nM. The IC50 with MV4-11 cells came to 28 nM.

In the case of `C[C@@H]1CN(c2cc(F)c(-c3cnc(N(C)C)c(F)c3)cc2NC(=O)c2c[nH]c(=O)cc2C(F)(F)F)C[C@H](C)N1C` [Example 221, N-[5-[6-(dimethylamino)-5-fluoropyridin-3-yl]-4-fluoro-2-[(3R,5S)-3,4,5-trimethylpiperazin-1-yl]phenyl]-6-oxo-4-(trifluoromethyl)-1H-pyridine-3-carboxamide], on WDR5 (setting [2]), the dissociation constant (Kd) turned out to be 0.769 nM. Further, the IC50 with MV4-11 cells was 120 nM.

Regarding `C[C@@H]1CN(c2cc(F)c(C3=CCN(c4ncccn4)CC3)cc2NC(=O)c2c[nH]c(=O)cc2C(F)(F)F)C[C@H](C)N1C` [Example 245, N-[4-fluoro-5-(1-pyrimidin-2-yl-3,6-dihydro-2H-pyridin-4-yl)-2-[(3R,5S)-3,4,5-trimethylpiperazin-1-yl]phenyl]-6-oxo-4-(trifluoromethyl)-1H-pyridine-3-carboxamide], the Kd on WDR5 (setting [2]) is 1.39 nM. In the assay with MV4-11 cells, the IC50 was determined as 125 nM.

As for `C[C@@H]1CN(c2cc(F)c(-c3ccc(N4CCOCC4)c(F)c3)cc2NC(=O)c2cn(C)c(=O)cc2C(F)(F)F)C[C@H](C)N1C` [Example 247, N-[4-fluoro-5-(3-fluoro-4-morpholin-4-ylphenyl)-2-[(3R,5S)-3,4,5-trimethylpiperazin-1-yl]phenyl]-1-methyl-6-oxo-4-(trifluoromethyl)pyridine-3-carboxamide], the equilibrium dissociation constant (Kd) at WDR5 (setting [2]) came to 5.16 nM. In the assay on MV4-11 cells, the concentration for half-maximal inhibition (IC50) came to 854 nM.

With `C[C@@H]1CN(c2cc(F)c(-c3cnc(N4CCOCC4)nc3)cc2NC(=O)c2ccc(F)cc2C(F)(F)F)C[C@H](C)N1C` [Example 248, 4-fluoro-N-[4-fluoro-5-(2-morpholin-4-ylpyrimidin-5-yl)-2-[(3R,5S)-3,4,5-trimethylpiperazin-1-yl]phenyl]-2-(trifluoromethyl)benzamide], the equilibrium dissociation constant (Kd) on WDR5 (setting [2]) was 1.33 nM. Moreover, the IC50 with MV4-11 cells amounted to 137 nM.

As for `COc1cc(N2CC=C(c3cc(NC(=O)c4c[nH]c(=O)cc4C(F)(F)F)c(N4C[C@@H](C)N(C)[C@@H](C)C4)cc3F)CC2)ncn1` [Example 274, N-[4-fluoro-5-[1-(6-methoxypyrimidin-4-yl)-3,6-dihydro-2H-pyridin-4-yl]-2-[(3R,5S)-3,4,5-trimethylpiperazin-1-yl]phenyl]-6-oxo-4-(trifluoromethyl)-1H-pyridine-3-carboxamide], the dissociation constant Kd at WDR5 (setting [2]) came to 1.29 nM. Moreover, the half-maximal inhibitory concentration (IC50) with MV4-11 cells is 75 nM.

Consider `C[C@@H]1CN(c2cc(F)c(C3=CCCN(c4ncccn4)C3)cc2NC(=O)c2c[nH]c(=O)cc2C(F)(F)F)C[C@H](C)N1C` [Example 334, N-[4-fluoro-5-(1-pyrimidin-2-yl-3,6-dihydro-2H-pyridin-5-yl)-2-[(3R,5S)-3,4,5-trimethylpiperazin-1-yl]phenyl]-6-oxo-4-(trifluoromethyl)-1H-pyridine-3-carboxamide], for which the Kd on WDR5 (setting [2]) is 0.095 nM. In addition, in the assay on MV4-11 cells, the 50% inhibitory concentration (IC50) is 31 nM.

Regarding `C[C@@H]1CN(c2cc(F)c(-c3ccnc(N4CCOCC4)n3)cc2NC(=O)c2c[nH]c(=O)cc2C(F)(F)F)C[C@H](C)N1C` [Example 378, N-[4-fluoro-5-(2-morpholin-4-ylpyrimidin-4-yl)-2-[(3R,5S)-3,4,5-trimethylpiperazin-1-yl]phenyl]-6-oxo-4-(trifluoromethyl)-1H-pyridine-3-carboxamide], at WDR5 (setting [2]), the equilibrium dissociation constant (Kd) was 0.877 nM. In addition, the IC50 with MV4-11 cells amounted to 20 nM.

As to `C[C@@H]1CN(c2cc(F)c(C3=CCCN(c4ncc(CO)cn4)C3)cc2NC(=O)c2c[nH]c(=O)cc2C(F)(F)F)C[C@H](C)N1C` [Example 413, N-[4-fluoro-5-[1-[5-(hydroxymethyl)pyrimidin-2-yl]-3,6-dihydro-2H-pyridin-5-yl]-2-[(3R,5S)-3,4,5-trimethylpiperazin-1-yl]phenyl]-6-oxo-4-(trifluoromethyl)-1H-pyridine-3-carboxamide], on WDR5 (setting [1]), the Kd came out at 0.302 nM. Further, the concentration for half-maximal inhibition (IC50) in the assay with MV4-11 cells is 57 nM.
